Laboratory results from ChEMBL document CHEMBL5506058, “Discovery of Quinazoline and Quinoline-Based Small Molecules as Utrophin Upregulators via AhR Antagonism for the Treatment of Duchenne Muscular Dystrophy” (J Med Chem, 2024).
Values after ≈ are worked out from the molar mass of the structure shown. Values belong to the compound of their own block, whether it stands above or below them. Active and inactive are the calls of the source. No cut-off for these calls is given here.

Legend:
[1] = target: T1, Aryl hydrocarbon receptor (Mus musculus, UniProt P30561); experiment: Induction of AhR nuclear translocation in mouse C2C12 cells at 800 nM measured after 2 hrs by Hoechst 33258 staining based fluorescence microscopy analysis; assay type: cell-based; conditions: c2c12, 2 h, 0.8 µM
T1 sequence (P30561 whole entry): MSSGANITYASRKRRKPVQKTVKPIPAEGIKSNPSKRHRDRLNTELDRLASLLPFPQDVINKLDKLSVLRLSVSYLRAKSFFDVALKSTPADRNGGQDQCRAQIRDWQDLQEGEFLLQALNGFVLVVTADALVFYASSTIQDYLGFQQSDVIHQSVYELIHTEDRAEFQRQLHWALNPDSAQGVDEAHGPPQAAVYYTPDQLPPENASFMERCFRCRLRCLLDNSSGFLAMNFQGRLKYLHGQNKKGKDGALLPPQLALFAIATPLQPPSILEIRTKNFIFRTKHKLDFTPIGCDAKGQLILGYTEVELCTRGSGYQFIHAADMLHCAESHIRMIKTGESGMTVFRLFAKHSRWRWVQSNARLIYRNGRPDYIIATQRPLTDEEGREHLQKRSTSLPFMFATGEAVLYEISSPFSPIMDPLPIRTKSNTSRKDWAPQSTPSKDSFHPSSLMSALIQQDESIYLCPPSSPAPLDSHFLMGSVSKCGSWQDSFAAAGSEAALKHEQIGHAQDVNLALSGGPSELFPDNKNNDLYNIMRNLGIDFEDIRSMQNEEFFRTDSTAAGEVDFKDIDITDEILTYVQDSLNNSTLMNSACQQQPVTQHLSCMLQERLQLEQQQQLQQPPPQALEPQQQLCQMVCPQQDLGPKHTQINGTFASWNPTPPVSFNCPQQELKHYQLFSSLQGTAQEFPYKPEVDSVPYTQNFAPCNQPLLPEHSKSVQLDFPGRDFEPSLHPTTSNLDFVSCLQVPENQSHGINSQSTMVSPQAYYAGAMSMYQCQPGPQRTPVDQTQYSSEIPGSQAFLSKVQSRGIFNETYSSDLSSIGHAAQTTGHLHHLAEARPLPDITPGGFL

C2C12 [2] = experiment: Upregulation of utrophin protein expression in mouse C2C12 level measured after 72 hrs by Westernblot analysis; assay type: functional, cell-based; conditions: dose 200-800 nM
C2C12 [3] = experiment: Upregulation of utrophin mRNA expression in mouse C2C12 level measured after 72 hrs by qRT-PCR analysis; assay type: functional, cell-based; conditions: dose 200-800 nM
[4] = Lipophilicity, logD of the compound in octanol/PBS at pH 7.4 measured after 1 hr by LC-MS and HPLC analysis; assay type: physicochemical
[5] = Upregulation of utrophin expression in mouse C2C12 cells assessed as fold increase at 800 nM measured after 72 hrs by In-cell ELISA method; assay type: functional
[6] = Lipophilicity, logD of the compound in cyclohexane/PBS at pH 7.4 measured after 1 hr by LC-MS and HPLC analysis; assay type: physicochemical; conditions: pH 7.4, 1 h
C2C12 [7] = experiment: Upregulation of utrophin mRNA expression in mouse C2C12 cells at 800 nM measured after 72 hrs by qRT-PCR analysis; assay type: functional, cell-based
C2C12 [8] = experiment: Cytotoxicity against mouse C2C12 cells assessed as reduction in cell viability at 0.78 to 100 uM measured after 24 hrs by MTT assay; assay type: toxicity, cell-based; conditions: c2c12, 24 h, dose 0.78-100 µM
[9] = target: T1, Aryl hydrocarbon receptor; experiment: Antagonist activity at AhR in mouse C2C12 cells assessed as reduction in ITE induced AhR nuclear translocation at 800 nM measured after 2 hrs by Hoechst 33258 staining based fluorescence microscopy analysis; assay type: cell-based; conditions: c2c12, 2 h, 0.8 µM
[10] = Upregulation of utrophin mRNA expression in mouse C2C12 cells assessed as fold increase at 800 nM measured after 72 hrs by qRT-PCR analysis; assay type: functional
[11] = Aqueous solubility of the compound in DMSO measured after 2 hrs by turbidity assay; assay type: physicochemical
[12] = Stability in human serum assessed as remaining compound at 50 uM measured after 2 hrs by LC-MS and HPLC analysis; assay type: ADME, cell-free; conditions: read-out: Stability
[13] = Binding affinity to recombinant AhR/ARNT (unknown origin) assessed as dissociation constant incubated for 30 mins by fluorescence quenching analysis; set-up: species or system Homo sapiens
[14] = Upregulation of utrophin protein expression in human patient derived KM1328 cells assessed as fold increase at 800 nM measured after 72 hrs by Western blot analysis; assay type: functional
[15] = Metabolic stability in rat liver microsomes assessed as intrinsic clearance at 5 uM preincubated for 5 mins followed by NADPH addition and measured upto 60 mins by LC-MS analysis; assay type: ADME, Microsome; conditions: time < 65 min, read-out: CLH
Homo sapiens = species: Homo sapiens; experiment: Binding affinity to recombinant AhR/ARNT (unknown origin) assessed as binding constant incubated for 30 mins by fluorescence quenching analysis; conditions: filed as antagonist
[16] = Stability in human plasma assessed as remaining compound at 50 uM measured after 2 hrs by LC-MS and HPLC analysis; assay type: ADME, cell-free; conditions: read-out: Stability
[17] = target: T1, Aryl hydrocarbon receptor; experiment: Antagonist activity at AhR in mouse C2C12 cells assessed as reversal of TCDD inhibited myogenesis by measuring fold change at 800 nM measured after 7 days by Hoechst 33258 staining based fluorescence microscopy analysis; assay type: cell-based; conditions: c2c12, 168 h, 0.8 µM, time 7 day
[18] = Upregulation of utrophin protein expression in mouse C2C12 cells assessed as fold increase at 800 nM measured after 72 hrs by Western blot analysis; assay type: functional
[19] = target: T1, Aryl hydrocarbon receptor; experiment: Antagonist activity at AhR in mouse C2C12 cells assessed as reduction in ITE induced AhR nuclear translocation measured after 2 hrs by Hoechst 33258 staining based fluorescence microscopy analysis; assay type: cell-based; conditions: c2c12, 2 h
[20] = Upregulation of utrophin protein expression in human patient derived KM1328 cells assessed as fold increase at 3 uM measured after 72 hrs by […]; assay type: functional
[21] = Upregulation of utrophin expression in mouse C2C12 cells assessed as fold increase at 3 uM measured after 72 hrs by In-cell ELISA method; assay type: functional

Activity [1]: Not Active
logD at 1 h [4]: 2.46
logD [6]: 0.2
Activity [9]: Active
solubility kinetic at 2 h [11]: 30 µM (≈ 9.94 µg/mL)
remaining at 2 h, 50 µM [12]: 70%
Kd [13]: 41.7 nM
microsomal CLint at 5 µM [15]: 6.66 µL/min/mg
Ka (Homo sapiens): 24 µM⁻¹
remaining at 2 h, 50 µM [16]: 69.2%
fold change (FC) [17]: 2
Compound: CS(=O)(=O)c1ccc2nc(NCc3ccc(F)cc3)ncc2c1
Activity (C2C12 [2]): Dose-Dependent Effect
Activity (C2C12 [3]): Dose-Dependent Effect
fold change (FC) [5]: 2.14
Activity (C2C12 [7]): Active
Activity (C2C12 [8]): Toxic
fold change (FC) [10]: 2.11
fold change (FC) [14]: 2.3
fold change (FC) [18]: 2.72

Compound: CS(=O)(=O)c1ccc2nc(NCc3ccncc3)ncc2c1
fold change (FC) [5]: 1.88
Activity (C2C12 [7]): Active
Activity (C2C12 [8]): Toxic

Compound: CCS(=O)(=O)c1ccc2nc(NCc3ccc(C(F)(F)F)cc3)ncc2c1
Activity (C2C12 [2]): Dose-Dependent Effect
Activity (C2C12 [3]): Dose-Dependent Effect
fold change (FC) [5]: 1.93
Activity (C2C12 [7]): Active
Activity (C2C12 [8]): Toxic
fold change (FC) [10]: 1.95
fold change (FC) [18]: 2.51

Activity [19]: Not Active
Compound: O=C(/C=C/C=C/c1ccc2c(c1)OCO2)N1CCCCC1 [PIPERINE]
fold change (FC) [20]: 0.99
fold change (FC) [21]: 1.3

Compound: CC(C)(C)c1ccc(Nc2ncc3cc(S(C)(=O)=O)ccc3n2)cc1
fold change (FC) [5]: 1.01
Activity (C2C12 [8]): Toxic

Compound: CCS(=O)(=O)c1ccc2nc(Nc3ccc(C(F)(F)F)cc3)ccc2c1
fold change (FC) [5]: 0.94
Activity (C2C12 [8]): Toxic

Compound: CC(C)(C)c1ccc(CNc2ccc3cc(S(C)(=O)=O)ccc3n2)cc1
fold change (FC) [5]: 0.99
Activity (C2C12 [8]): Toxic

Compound: CS(=O)(=O)c1ccc2nc(NCc3ccc(F)cc3)ccc2c1
fold change (FC) [5]: 1
Activity (C2C12 [8]): Toxic

Compound: CCS(=O)(=O)c1ccc2nc(Nc3ccc(O)cc3)ccc2c1
fold change (FC) [5]: 0.93
Activity (C2C12 [8]): Toxic

Compound: COc1ccc(Nc2ccc3cc(S(C)(=O)=O)ccc3n2)cc1
fold change (FC) [5]: 0.87
Activity (C2C12 [8]): Toxic

Compound: CS(=O)(=O)c1ccc2nc(NCc3ccc4c(c3)OCO4)ccc2c1
fold change (FC) [5]: 0.97
Activity (C2C12 [8]): Toxic

Compound: CCS(=O)(=O)c1ccc2nc(NCCc3cc4ccccc4[nH]3)ccc2c1
fold change (FC) [5]: 1.3
Activity (C2C12 [8]): Toxic

Compound: CCS(=O)(=O)c1ccc2cnc(NCc3ccc(C(F)(F)F)cc3)nc2c1
fold change (FC) [5]: 1.51
Activity (C2C12 [8]): Toxic
